In patent US20230292776A1, “GAS PHASE TREATMENT OF PRODUCE” (priority 2022, published 2023):

Tests used:
[1] = tested on: Penicillium digitatum (Pd); experiment: Antifungal activity of vapor against Penicillium digitatum (Pd) in wounded, infected mandarins; assay type: in vivo; details: for effect on Pd mold: Example 5, assessed after 6 days; for infected mandarins: Example 6
[2] = tested on: avocados; design: species or system avocado; details: in vivo
Description: Example 11. The ripening characteristics of avocados exposed to AITC vapor was analyzed. Treatment groups consisted of avocados that were: exposed to the vapor of 125 μL of AITC in a Petri dish for 30 min and 18 hours; exposed to the vapor of 500 μL of AITC for 30 minutes and 18 hours; untreated and kept 18 hours in a bin; and treated with a coating agent. Two sets of the preceding test groups were studied. One set was treated when cold along with coated fruit (i.e., fruit treated with a coating agent (95 wt % glyceryl monostearate and 5 wt % sodium stearate) and another set was treated when warm (one day out of cold storage). Daily measurements were made of respiration and firmness (using a durometer). At the start of the test, the avocados were placed in cold storage. After one day, the cold treated avocados were treated with AITC directly after removal from cold storage. The coated group was treated at this time. The warm treated avocados were allowed to warm to room temperature. On the second day, measurements were begun on the cold treated avocados and AITC treatments began on the warm treated samples. On the third day, measurements began on the warm treated groups. […]
Example 23: The ripening characteristics of avocados exposed to AITC vapor, a coating agent (95 wt % glyceryl monostearate and 5 wt % sodium stearate), and AITC plus the coating agent was analyzed. […]

## C=CCN=C=S [AITC, allyl isothiocyanate]
[1]; Example 2, mandarins, 72 hours vapor of 3 mL
  inhibition of fungal growth (Pd): approximately 100%
[1]; Example 4, doses of 125 μL, 250 μL & 500 μL, airtight container, 18 hours, 6 days
  Pd mold growth: substantially prevented the growth mold
[1]; 125 μL (730 ppm), 30 min exposure
  effect on Pd mold: greatly reduced severity of Pd mold infection
[1]; 125 μL, 1 hour exposure
  effect on Pd mold: greatly reduced severity and incidence of Pd mold
[1]; 125 μL, 30 minutes, treated after 24 hours
  infected mandarins: 8.3%
[1]; 125 μL, 30 minutes, treated after 48 hours
  infected mandarins: 25%
[1]; 125 μL, 30 minutes, treated after 72 hours
  infected mandarins: 16.7%
[1]; 125 μL, 30 minutes, treated after 96 hours
  infected mandarins: 81.6%
[1]; 125 μL, 30 minutes, treated immediately after infection (0 hours)
  infected mandarins: 58.3%
[1]; Example 19, 62.5 μL (50% of the minimum inhibitory concentration), 30 minutes
  effect on Pd infection at lower dose: tends to reduce the severity of infection, but not eliminate the incidence of infection
[2]
  effect on avocado peel and firmness: causes darkening and thickening of the avocado peel and a prolonged feeling a firmness
